Our source for the GI50 values is US20260062422A1 (Halda Therapeutics OpCo, Inc., priority 2022, published 2026).

The subject of assay [1] is T-Rex 293 cell line SC3 cells having increased expression of androgen receptor protein due to exposure to doxycycline. In words: Cellular growth inhibition, T-Rex 293 SC3 cells with doxycycline (androgen receptor induced), CellTiter-Glo. The settings on record: 72 h, T-Rex 293 SC3 cells with 10 ng/mL doxycycline (increased androgen receptor expression). The format is cell-based. The gist of the method: (§1)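 With DMSO (0.5%) vehicle as negative control, compounds treated SC3 cells for 72 h in medium containing charcoal-dextran FBS ± doxycycline. This T-Rex 293 clone expresses transfected wild-type AR on induction. Readout: CellTiter-Glo 2.0; GI50 by nonlinear regression.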

Another assay relates to VCaP cells. The assay can be described thus: Cellular growth inhibition assay for VCaP cells, CellTiter-Glo. The format is cell-based, human. The settings on record: 72 hours treatment, CellTiter-Glo 2.0. The gist of the method: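 GI50 values come from four-parameter curve fits of luminescence data normalized to a zero baseline. Compound, in medium with 0.5% DMSO, was added one day after plating and left for 72 h before CellTiter-Glo 2.0 addition.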
A general note: In ATP-based viability assays light output follows the ATP content of the culture.

For assay [2], the system named is T-Rex 293 cell line SC3 cells lacking increased expression of androgen receptor protein. In words: Cellular growth inhibition, T-Rex 293 SC3 cells without doxycycline, CellTiter-Glo. The format is cell-based. The settings on record: 72 h, T-Rex 293 SC3 cells not exposed to doxycycline, CellTiter-Glo 2.0. A digest of the protocol:
as §1

Some results are limits rather than exact numbers.

With `COCC[C@@H]1N=C(c2ccc(CCCOC3CCN(c4ncc(C(=O)N[C@H]5C(C)(C)[C@H](Oc6ccc(C#N)c(Cl)c6)C5(C)C)cn4)CC3)cc2)c2c(sc(C)c2C)-n2c(C)nnc21` [Compound I-227, N-[3-(3-chloro-4-cyano-phenoxy)-2,2,4,4-tetramethyl-cyclobutyl]-2-[4-[3-[4-[(9S)-9-(2-methoxyethyl)-4,5,13-trimethyl-3-thia-1,8,11,12-tetrazatricyclo[8.3.0.02,6]trideca-2(6),4,7,10,12-pentaen-7-yl]phenyl]propoxy]-1-piperidyl]pyrimidine-5-carboxamide], the 50% growth inhibitory concentration (GI50) (as a rule, the concentration giving 50% growth inhibition) in assay [1] is below 500 nM; with VCaP cells (Homo sapiens, VCaP, 72 h) it was above 3000 nM; in assay [2], 500 to 1500 nM.
In the same order, the values of `Cc1sc2c(c1C)C(c1ccc(OCCOC3CCN(c4ncc(C(=O)N[C@H]5C(C)(C)[C@H](Oc6ccc(C#N)c(Cl)c6)C5(C)C)cn4)CC3)cc1)=N[C@@H](CC(=O)O)c1nnc(C)n1-2` [Compound I-38] are 500 to 1500 nM, above 3000 nM and above 3000 nM.
For `Cc1sc2c(c1C)C(c1ccc(N3CC(C4CCN(c5ncc(C(=O)N[C@H]6C(C)(C)[C@H](Oc7ccc(C#N)c(Cl)c7)C6(C)C)cn5)CC4)C3)cc1)=N[C@@H](C)c1nnc(C)n1-2` [Compound I-271], the GI50 was below 500 nM in assay [1]; above 3000 nM in the assay with VCaP cells (Homo sapiens, VCaP, 72 h); above 3000 nM in assay [2].
Consider `Cc1sc2c(c1C)C(c1ccc(Cl)cc1)=N[C@@H](CC(=O)NCCCCCCCOC1CCN(c3ncc(C(=O)N[C@H]4C(C)(C)[C@H](Oc5ccc(C#N)c(Cl)c5)C4(C)C)cn3)CC1)c1nnc(C)n1-2` [Compound I-24], for which the concentration for 50% growth inhibition (GI50) in assay [1] is below 500 nM; in the assay with VCaP cells (Homo sapiens, VCaP, 72 h) it was below 500 nM; in assay [2] it was above 3000 nM.
Turning to `CCNC(=O)C[C@@H]1N=C(c2ccc(OCCOCCOC3CCN(c4ncc(C(=O)N[C@H]5C(C)(C)[C@H](Oc6ccc(C#N)c(Cl)c6)C5(C)C)cn4)CC3)cc2)c2c(sc(C)c2C)-n2c(C)nnc21` [Compound I-44], the GI50 in assay [1] was below 500 nM; with VCaP cells (Homo sapiens, VCaP, 72 h), below 500 nM; in assay [2] it was 500 to 1500 nM.
With `Cc1sc2c(c1C)C(c1ccc(Cl)cc1)=N[C@@H](CC(=O)NCCOCCOCCOCC1CCN(c3ncc(C(=O)N[C@H]4C(C)(C)[C@H](Oc5ccc(C#N)c(Cl)c5)C4(C)C)cn3)CC1)c1nnc(C)n1-2` [Compound I-17], the results for the GI50 in assay [1] and in assay [2] were below 500 nM and 500 to 1500 nM, respectively.
Consider `Cc1sc2c(c1C)C(c1ccc(CC3CC4(CCN(c5ncc(C(=O)N[C@H]6C(C)(C)[C@H](Oc7ccc(C#N)c(Cl)c7)C6(C)C)cn5)CC4)C3)cc1)=N[C@@H](C)c1nnc(C)n1-2` [Compound I-436], for which the GI50 in assay [1] is below 500 nM; with VCaP cells (Homo sapiens, VCaP, 72 h), above 3000 nM; in assay [2], 1500 to 3000 nM.
Regarding `Cc1sc2c(c1C)C(c1ccc(N3CC(CC4CCN(c5ncc(C(=O)N[C@H]6C(C)(C)[C@H](Oc7ccc(C#N)c(Cl)c7)C6(C)C)cn5)CC4)C3)cc1)=N[C@@H](C)c1nnc(C)n1-2` [Compound I-270], the 50% growth inhibitory concentration (GI50) in assay [1] was below 500 nM; in the assay with VCaP cells (Homo sapiens, VCaP, 72 h), 1500 to 3000 nM; in assay [2] it was above 3000 nM.
Consider `Cc1sc2c(c1C)C(c1ccc(CCC3CC4(CCCN(c5ncc(C(=O)N[C@H]6C(C)(C)[C@H](Oc7ccc(C#N)c(Cl)c7)C6(C)C)cn5)C4)C3)cc1)=N[C@@H](Cc1ncco1)c1nnc(C)n1-2` [Compound I-241], for which the GI50 in assay [1] is below 500 nM; in the assay on VCaP cells (Homo sapiens, VCaP, 72 h), above 3000 nM; in assay [2] it was below 500 nM.
In the case of `Cc1sc2c(c1C)C(c1ccc(Cl)cc1)=N[C@@H](CC(=O)NCCCN1CCN(CC3CCN(c4ncc(C(=O)N[C@H]5C(C)(C)[C@H](Oc6ccc(C#N)c(Cl)c6)C5(C)C)cn4)CC3)CC1)c1nnc(C)n1-2` [Compound I-36, N-((1r,3r)-3-(3-chloro-4-cyanophenoxy)-2,2,4,4-tetramethylcyclobutyl)-2-(4-((4-(3-(2-((S)-4-(4-chlorophenyl)-2,3,9-trimethyl-6H-thieno[3,2-f][1,2,4]triazolo[4,3-a][1,4]diazepin-6-yl)acetamido)propyl)piperazin-1-yl)methyl)piperidin-1-yl)pyrimidine-5-carboxamide], the concentration for 50% growth inhibition (GI50) in assay [1] lay within 500 to 1500 nM; in the assay with VCaP cells (Homo sapiens, VCaP, 72 h), 500 to 1500 nM; in assay [2], 500 to 1500 nM.
As for `CCNC(=O)C[C@@H]1N=C(c2cccc(OCCOCCOC3CCN(c4ncc(C(=O)N[C@H]5C(C)(C)[C@H](Oc6ccc(C#N)c(Cl)c6)C5(C)C)cn4)CC3)c2)c2c(sc(C)c2C)-n2c(C)nnc21` [Compound I-47, N-((1r,3r)-3-(3-chloro-4-cyanophenoxy)-2,2,4,4-tetramethylcyclobutyl)-2-(4-(2-(2-(3-((S)-6-(2-(ethylamino)-2-oxoethyl)-2,3,9-trimethyl-6H-thieno[3,2-f][1,2,4]triazolo[4,3-a][1,4]diazepin-4-yl)phenoxy)ethoxy)ethoxy)piperidin-1-yl)pyrimidine-5-carboxamide], the 50% growth inhibitory concentration (GI50) in assay [1] is below 500 nM; in the assay on VCaP cells (Homo sapiens, VCaP, 72 h), 500 to 1500 nM; in assay [2], 500 to 1500 nM.
With `CCNC(=O)C[C@@H]1N=C(c2ccc(N(C)CC3CN(c4ncc(C(=O)N[C@H]5C(C)(C)[C@H](Oc6ccc(C#N)c(Cl)c6)C5(C)C)cn4)C3)cc2)c2c(sc(C)c2C)-n2c(C)nnc21` [Compound I-107], the GI50 in assay [1] was below 500 nM; with VCaP cells (Homo sapiens, VCaP, 72 h), below 500 nM; in assay [2] it was 500 to 1500 nM.
For the compound `CCNC(=O)C[C@@H]1N=C(c2ccc(OCCOC3CCN(c4ncc(C(=O)N[C@H]5C(C)(C)[C@H](Oc6ccc(C#N)c(Cl)c6)C5(C)C)cn4)CC3)c(F)c2)c2c(sc(C)c2C)-n2c(C)nnc21` [Compound I-76], the concentration for 50% growth inhibition (GI50) in assay [1] is below 500 nM; in the assay with VCaP cells (Homo sapiens, VCaP, 72 h), 500 to 1500 nM; in assay [2], 500 to 1500 nM.
Turning to `Cc1sc2c(c1C)C(c1ccc(Cl)cc1)=N[C@H](CC(=O)NCCOCCOCCOCCOCCOCCOCCOC1CCN(c3ncc(C(=O)N[C@H]4C(C)(C)[C@H](Oc5ccc(C#N)c(Cl)c5)C4(C)C)cn3)CC1)c1nnc(C)n1-2` [Compound I-9], the concentration for 50% growth inhibition (GI50) in assay [1] was below 500 nM; with VCaP cells (Homo sapiens, VCaP, 72 h), below 500 nM; in assay [2], 1500 to 3000 nM.
For the compound `Cc1sc2c(c1C)C(c1ccc(Cl)cc1)=N[C@@H](CC(=O)NCCOC1CCN(c3ncc(C(=O)N[C@H]4C(C)(C)[C@H](Oc5ccc(C#N)c(Cl)c5)C4(C)C)cn3)CC1)c1nnc(C)n1-2` [Compound I-6], the GI50 in assay [1] was below 500 nM; with VCaP cells (Homo sapiens, VCaP, 72 h) it was below 500 nM; in assay [2] it was 500 to 1500 nM.
In the case of `Cc1sc2c(c1C)C(c1cccc(OCCOCCOC3CCN(c4ncc(C(=O)N[C@H]5C(C)(C)[C@H](Oc6ccc(C#N)c(Cl)c6)C5(C)C)cn4)CC3)c1)=N[C@@H](CC(=O)O)c1nnc(C)n1-2` [Compound I-42], the GI50 in assay [1] is 500 to 1500 nM; in the assay with VCaP cells (Homo sapiens, VCaP, 72 h), 1500 to 3000 nM; in assay [2], above 3000 nM.
Take `Cc1sc2c(c1C)C(c1ccc(CC3CC4(CCN(c5ncc(C(=O)N[C@H]6C(C)(C)[C@H](Oc7ccc(C#N)c(Cl)c7)C6(C)C)cn5)CC4)C3)cc1)=N[C@@H](C)c1nnc(C)n1-2` [Compound I-303]: in the assay on VCaP cells, the GI50 was 1500 to 3000 nM.
Turning to `Cc1sc2c(c1C)C(c1ccc(Cl)cc1)=N[C@@H](CC(=O)NCCN(C)c1ncc(C(=O)N[C@H]3C(C)(C)[C@H](Oc4ccc(C#N)c(Cl)c4)C3(C)C)cn1)c1nnc(C)n1-2` [Compound I-1, N-[3-(3-chloro-4-cyano-phenoxy)-2,2,4,4-tetramethyl-cyclobutyl]-2-[2-[[2-[(9S)-7-(4-chlorophenyl)-4,5,13-trimethyl-3-thia-1,8,11,12-tetrazatricyclo[8.3.0.02,6]trideca-2(6),4,7,10,12-pentaen-9-yl]acetyl]amino]ethyl-methyl-amino]pyrimidine-5-carboxamide], the concentration for 50% growth inhibition (GI50) in assay [1] and in assay [2] was 1500 to 3000 nM throughout.
